Laboratory results as given in US7527942B2, “Transcription amplification system for molecular imaging” (The Regents of the University of California, priority 2002, dated 2009).

Columns and labels:
[1] = human subjects; cited from earlier work
[2] = tested on: LNCaP cells; assay: Co-transfection luciferase assay with 10 nM R1881 (Example 2); format: cell-based, human; settings: charcoal-stripped serum
Description: We performed transient transfections 24 hours later using Tfx-50 (Promega) with a lipid:DNA ratio of 4:1. Each transfection mixture contained 0.5 μg of the effector and reporter plasmids or reporter plasmid alone with pGL3B carrier DNA. Methylenetrienolone (R1881; NEN Life Science Products, Boston, Mass.) was added to the medium at a concentration of 10 nM/well one hour following transfection, and the cells were incubated for 48 h. The cells were harvested and lysed using the passive lysis buffer provided in the assay kit for measuring FL activities (Dual-Reporter Luciferase Assay System, Promega).

Compound	blood-brain-barrier penetration [1]	basal activity of the PSA enhancer constructs [2]
Nc1nc(=O)c2ncn(CCC(CO)C[18F])c2[nH]1 (stereo not drawn) [[^18F]FHBG, 9-(4-[18F]-fluoro-3-hydroxymethylbutyl)guanine]	does not significantly cross the blood-brain-barrier	
O=c1[nH]c(=O)n([C@@H]2O[C@H](CO)[C@@H](O)[C@@H]2F)cc1[125I] [[^124I]FIAU, 2′-fluoro-2′-deoxy-1-β-D-arabinofuranosyl-5-iodo-uracil]	cannot penetrate the blood brain barrier	
CC(O)(CS(=O)(=O)c1ccc(F)cc1)C(=O)Nc1ccc(C#N)c(C(F)(F)F)c1 (stereo not drawn) [casodex, reference compound]		further reduced
